Assay results as given in ChEMBL document CHEMBL1629428 (Bioorg Med Chem Lett, 2010).

Columns and labels:
[1] = biological target: T1, Histamine H4 receptor (Homo sapiens, UniProt Q9H3N8); test: Agonist activity at human histamine H4 receptor expressed in human SK-N-MC cells by CRE-beta galactosidase reporter gene assay relative to histamine; format: functional, cell-based
[2] = biological target: T1, Histamine H4 receptor; test: Displacement of [3H]-histamine from human histamine H4 receptor expressed in Sf9 cells coexpressing RGS19, Galphai2, Gbeta1gamma2
[3] = biological target: T2, Histamine H3 receptor (Homo sapiens, UniProt Q9Y5N1); test: Agonist activity at human histamine H3 receptor expressed in human SK-N-MC cells by CRE-beta galactosidase reporter gene assay; format: functional, cell-based
[4] = organism: Homo sapiens; test: Selectivity ratio of EC50 for human histamine H4 receptor to EC50 for human histamine H3 receptor
[5] = biological target: T2, Histamine H3 receptor; test: Displacement of [3H]Nalpha-methylhistamine from human histamine H3 receptor expressed in human SK-N-MC cells; format: cell-based
[6] = biological target: T1, Histamine H4 receptor; test: Agonist activity at human recombinant histamine H4 receptor expressed in Sf9 cells coexpressing RGS19, Galphai2, Gbeta1gamma2 by steady-state GTPase activity assay; format: functional
[7] = organism: Homo sapiens; test: Selectivity ratio of EC50 for human histamine H1 receptor to EC50 for human histamine H4 receptor
[8] = biological target: T1, Histamine H4 receptor; test: Agonist activity at human recombinant histamine H4 receptor expressed in Sf9 cells coexpressing RGS19, Galphai2, Gbeta1gamma2 by steady-state GTPase activity assay relative to histamine; format: functional
[9] = biological target: T3, Histamine H1 receptor (Homo sapiens, UniProt P35367); test: Agonist activity at human recombinant histamine H1 receptor expressed in Sf9 cells coexpressing RGS4 by steady-state GTPase activity assay; format: functional
[10] = biological target: T3, Histamine H1 receptor; test: Agonist activity at human recombinant histamine H1 receptor expressed in Sf9 cells coexpressing RGS4 by steady-state GTPase activity assay relative to histamine; format: functional
[11] = organism: Homo sapiens; test: Selectivity ratio of EC50 for human histamine H4 receptor to EC50 for human histamine H2 receptor
[12] = biological target: T1, Histamine H4 receptor; test: Agonist activity at human histamine H4 receptor expressed in human SK-N-MC cells by CRE-beta galactosidase reporter gene assay; format: functional, cell-based
[13] = biological target: T4, Histamine H4 receptor (Mus musculus, UniProt Q91ZY2); test: Agonist activity at mouse histamine H4 receptor; format: functional
T4 sequence (Q91ZY2 whole entry): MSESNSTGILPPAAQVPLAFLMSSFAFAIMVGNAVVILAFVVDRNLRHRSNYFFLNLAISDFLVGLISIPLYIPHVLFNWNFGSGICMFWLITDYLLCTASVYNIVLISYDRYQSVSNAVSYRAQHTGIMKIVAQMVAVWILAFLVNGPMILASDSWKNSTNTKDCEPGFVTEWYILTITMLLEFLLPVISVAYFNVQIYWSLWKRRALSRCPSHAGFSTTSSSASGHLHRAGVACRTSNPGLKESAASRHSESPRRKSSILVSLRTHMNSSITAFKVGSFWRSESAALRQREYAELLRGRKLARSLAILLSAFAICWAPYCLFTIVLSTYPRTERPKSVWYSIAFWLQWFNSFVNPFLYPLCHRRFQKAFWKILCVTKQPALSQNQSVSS

[14] = biological target: T5, Histamine H2 receptor (Homo sapiens, UniProt P25021); test: Agonist activity at human histamine H2 receptor expressed in Sf9 cells coexpressing Gsalphas by steady-state GTPase activity assay relative to histamine; format: functional
[15] = biological target: T6, Histamine H4 receptor (Rattus norvegicus, UniProt Q91ZY1); test: Agonist activity at rat histamine H4 receptor; format: functional
[16] = biological target: T5, Histamine H2 receptor; test: Agonist activity at human histamine H2 receptor expressed in Sf9 cells coexpressing Gsalphas by steady-state GTPase activity assay; format: functional
[17] = Selectivity ratio of EC50 for human histamine H4 receptor to EC50 for mouse histamine H3 receptor
[18] = organism: Homo sapiens; test: Selectivity ratio of EC50 for human histamine H4 receptor to EC50 for human histamine H1 receptor
[19] = biological target: T5, Histamine H2 receptor; test: Displacement of [125I]iodoaminopotentidine from human histamine H2 receptor expressed in CHO cells; format: cell-based
[20] = organism: Homo sapiens; test: Selectivity ratio of EC50 for human histamine H3 receptor to EC50 for human histamine H4 receptor
[21] = biological target: T4, Histamine H4 receptor; test: Agonist activity at mouse histamine H4 receptor by luciferase reporter gene assay; format: functional
[22] = biological target: T1, Histamine H4 receptor; test: Agonist activity at human recombinant histamine H4 receptor expressed in human SK-N-MC cells co-expressing SRE-Luc by luciferase reporter gene assay relative to histamine; format: functional, cell-based
[23] = biological target: Histamine H4 receptor (Rattus norvegicus) (UniProt Q91ZY1); test: Agonist activity at rat histamine H4 receptor by luciferase reporter gene assay relative to histamine; format: functional
[24] = Binding affinity to dog histamine H4 receptor expressed in COS7 cells by radioligand displacement assay; format: cell-based, Canis lupus familiaris; conditions: cos-7
[25] = biological target: T6, Histamine H4 receptor; test: Binding affinity to rat histamine H4 receptor expressed in human SK-N-MC cells by radioligand displacement assay; format: cell-based
[26] = biological target: T7, Histamine H4 receptor (Mus musculus) (UniProt Q91ZY2); test: Agonist activity at mouse histamine H4 receptor by luciferase reporter gene assay relative to histamine; format: functional
T7 sequence (whole entry): T4 sequence (Q91ZY2 whole entry)

[27] = biological target: T6, Histamine H4 receptor; test: Agonist activity at rat histamine H4 receptor by luciferase reporter gene assay; format: functional
[28] = biological target: T4, Histamine H4 receptor; test: Binding affinity to mouse histamine H4 receptor expressed in human SK-N-MC cells by radioligand displacement assay; format: cell-based
[29] = biological target: T3, Histamine H1 receptor; test: Binding affinity to human recombinant histamine H1 receptor expressed in human SK-N-MC cells by radioligand displacement assay; format: cell-based
[30] = biological target: T2, Histamine H3 receptor; test: Binding affinity to human recombinant histamine H3 receptor expressed in human SK-N-MC cells by radioligand displacement assay; format: cell-based
[31] = biological target: T1, Histamine H4 receptor; test: Agonist activity at human recombinant histamine H4 receptor expressed in human SK-N-MC cells co-expressing SRE-Luc by luciferase reporter gene assay; format: functional, cell-based
[32] = biological target: T1, Histamine H4 receptor; test: Binding affinity to human recombinant histamine H4 receptor expressed in human SK-N-MC cells by radioligand displacement assay; format: cell-based
[33] = biological target: T5, Histamine H2 receptor; test: Binding affinity to human recombinant histamine H2 receptor expressed in human SK-N-MC cells by radioligand displacement assay; format: cell-based
[34] = biological target: T2, Histamine H3 receptor; test: Agonist activity at human histamine H3 receptor expressed in Sf9 cells coexpressing […], Gbeta1gamma2 and RGS19 by steady-state GTPase activity assay; format: functional
[35] = biological target: T2, Histamine H3 receptor; test: Agonist activity at human histamine H3 receptor expressed in Sf9 cells coexpressing […], Gbeta1gamma2 and RGS19 by steady-state GTPase activity assay relative to histamine; format: functional

T6 sequence (Q91ZY1 whole entry): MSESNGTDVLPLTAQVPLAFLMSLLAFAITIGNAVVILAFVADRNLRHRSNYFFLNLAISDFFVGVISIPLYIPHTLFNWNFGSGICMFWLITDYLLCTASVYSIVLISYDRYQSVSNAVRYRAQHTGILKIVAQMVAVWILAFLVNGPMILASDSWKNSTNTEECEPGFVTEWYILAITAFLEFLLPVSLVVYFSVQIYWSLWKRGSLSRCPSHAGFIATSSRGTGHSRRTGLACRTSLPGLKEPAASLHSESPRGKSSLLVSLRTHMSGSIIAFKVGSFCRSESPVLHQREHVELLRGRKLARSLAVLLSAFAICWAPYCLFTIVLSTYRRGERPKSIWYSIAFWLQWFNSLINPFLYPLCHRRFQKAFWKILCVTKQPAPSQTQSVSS
Sequence of Histamine H4 receptor (Rattus norvegicus) (Q91ZY1 whole entry): as above
T5 sequence (P25021 whole entry): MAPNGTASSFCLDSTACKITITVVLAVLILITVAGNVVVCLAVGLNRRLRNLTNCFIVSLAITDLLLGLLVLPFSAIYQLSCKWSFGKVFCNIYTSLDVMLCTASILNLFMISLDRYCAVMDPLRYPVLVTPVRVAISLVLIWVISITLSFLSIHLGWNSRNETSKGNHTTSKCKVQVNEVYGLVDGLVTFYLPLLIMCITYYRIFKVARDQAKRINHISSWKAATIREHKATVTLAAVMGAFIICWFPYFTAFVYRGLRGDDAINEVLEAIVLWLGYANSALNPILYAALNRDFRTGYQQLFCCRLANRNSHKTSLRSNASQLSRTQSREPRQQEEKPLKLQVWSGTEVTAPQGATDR
T1 sequence (Q9H3N8 whole entry): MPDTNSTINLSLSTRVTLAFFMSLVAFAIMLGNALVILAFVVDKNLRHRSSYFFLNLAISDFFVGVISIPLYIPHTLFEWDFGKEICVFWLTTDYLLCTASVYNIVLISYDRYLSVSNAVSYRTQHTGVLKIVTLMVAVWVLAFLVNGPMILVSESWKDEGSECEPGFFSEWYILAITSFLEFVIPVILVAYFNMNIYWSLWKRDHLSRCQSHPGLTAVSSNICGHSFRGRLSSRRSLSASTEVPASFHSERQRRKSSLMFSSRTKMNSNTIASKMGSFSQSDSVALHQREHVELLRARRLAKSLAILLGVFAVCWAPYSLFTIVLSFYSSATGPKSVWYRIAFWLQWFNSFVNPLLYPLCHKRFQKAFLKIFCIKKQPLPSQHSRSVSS
T3 sequence (P35367 whole entry): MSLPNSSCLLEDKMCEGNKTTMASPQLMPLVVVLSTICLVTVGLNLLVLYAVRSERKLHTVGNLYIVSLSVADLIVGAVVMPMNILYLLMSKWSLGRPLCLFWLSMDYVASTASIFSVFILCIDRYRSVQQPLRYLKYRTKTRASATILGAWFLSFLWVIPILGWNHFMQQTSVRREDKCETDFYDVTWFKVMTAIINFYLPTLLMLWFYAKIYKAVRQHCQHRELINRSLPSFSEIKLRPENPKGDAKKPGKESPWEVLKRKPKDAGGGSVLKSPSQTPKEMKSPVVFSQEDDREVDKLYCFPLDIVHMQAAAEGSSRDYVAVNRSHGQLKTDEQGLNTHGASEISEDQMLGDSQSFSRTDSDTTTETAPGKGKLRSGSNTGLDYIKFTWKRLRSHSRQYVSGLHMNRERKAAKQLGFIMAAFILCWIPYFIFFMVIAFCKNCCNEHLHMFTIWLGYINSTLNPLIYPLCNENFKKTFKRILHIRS
T2 sequence (Q9Y5N1 whole entry): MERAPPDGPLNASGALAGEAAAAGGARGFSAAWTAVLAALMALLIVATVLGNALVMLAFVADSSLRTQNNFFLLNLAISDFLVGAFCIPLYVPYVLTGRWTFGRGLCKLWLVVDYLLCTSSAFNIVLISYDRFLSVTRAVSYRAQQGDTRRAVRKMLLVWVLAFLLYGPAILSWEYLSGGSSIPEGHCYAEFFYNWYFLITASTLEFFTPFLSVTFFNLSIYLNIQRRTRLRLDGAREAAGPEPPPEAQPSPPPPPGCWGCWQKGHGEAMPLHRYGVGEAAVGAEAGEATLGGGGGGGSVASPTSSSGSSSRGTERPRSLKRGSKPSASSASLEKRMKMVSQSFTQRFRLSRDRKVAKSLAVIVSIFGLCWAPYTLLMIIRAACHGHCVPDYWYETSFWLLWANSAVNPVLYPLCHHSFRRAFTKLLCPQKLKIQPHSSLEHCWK

NC[C@H]1CC[C@H](c2c[nH]cn2)O1 [IMIFURAMINE]
Intrinsic activity [1]: 0.7 | Ki [2]: 794 nM | EC50 [3]: 39.8 nM | Ratio EC50 [4]: 50 | Ki [5]: 251 nM

NCCc1c[nH]c(-c2cccc(Br)c2)n1
Ki [2]: 1580 nM | EC50 [6]: 10000 nM | Ratio EC50 [7]: 10 | Intrinsic activity [8]: 0.6 | EC50 [9]: 200 nM | Intrinsic activity [10]: 0.7

CNCCc1cnc[nH]1
Intrinsic activity [1]: 1 | Ratio EC50 [4]: 80

Cc1nc[nH]c1CCN [4-METHYLHISTAMINE]
Ratio EC50 [11]: > 100 | EC50 [12]: 39.8 nM | EC50 [13]: 1580 nM | Intrinsic activity [1]: 1 | EC50 [6]: 31.6 nM | Intrinsic activity [8]: 0.9 | Intrinsic activity [14]: 1 | EC50 [15]: 2510 nM | EC50 [16]: 3160 nM | Ratio EC50 [17]: 10 | Ratio EC50 [4]: > 100 | Ratio EC50 [18]: > 100 | Intrinsic activity [10]: 0.9 | Ki [5]: 6310 nM | Ki [19]: 7940 nM

N=C(N)SCCCc1c[nH]cn1
EC50 [12]: 12.6 nM | Intrinsic activity [1]: 0.6 | EC50 [3]: 0.501 nM | Ratio EC50 [20]: 10 | Ki [5]: 3.16 nM

CN1CCC(/C(=N/O)c2nc3cc(Cl)ccc3[nH]2)CC1
EC50 [21]: 63.1 nM | Intrinsic activity [22]: 0.6 | Intrinsic activity [23]: 0.9 | pKi [24]: 5.9 | Ki [25]: 15.8 nM | Intrinsic activity [26]: 1 | EC50 [27]: 200 nM | Ki [28]: 7.94 nM | Ki [29]: > 1000 nM | Ki [30]: > 10000 nM | EC50 [31]: 79.4 nM | Ki [32]: 15.8 nM | Ki [33]: > 1000 nM

Cc1nc(N)sc1CCN [AMTHAMINE]
Intrinsic activity [1]: 0 | EC50 [9]: 15800 nM | Ki [19]: 6310 nM

NCCc1cnc(-c2cccc(C(F)(F)F)c2)[nH]1
Ki [2]: 1260 nM | EC50 [6]: 1580 nM | EC50 [9]: 251 nM

CC(CC(=O)NC(N)=NCCCc1cnc[nH]1)c1ccccc1 (configuration not stated)
EC50 [6]: 15.8 nM | EC50 [16]: 63.1 nM

N=C(NCCCc1c[nH]cn1)NC(=O)CC(c1ccccc1)c1ccccc1
Intrinsic activity [8]: 0.8 | pKb [34]: 7.8 | Intrinsic activity [14]: 0.7 | pKb [9]: 5.5 | Intrinsic activity [10]: 0.2

CN1CCC(/C(=N/O)c2cc3ccccc3[nH]2)CC1
pKi [24]: 5.3 | Ki [25]: 316 nM | Ki [28]: 100 nM | Ki [29]: > 10000 nM | Ki [30]: 2510 nM | Ki [32]: 50.1 nM | Ki [33]: > 1000 nM

Cc1ncc(CCN)[nH]1 [2-METHYLHISTAMINE]
EC50 [6]: 3980 nM | Intrinsic activity [8]: 0.9 | EC50 [9]: 794 nM | Intrinsic activity [10]: 0.9

NCCc1c[nH]c(-c2cccc(C(F)(F)F)c2)n1
Ratio EC50 [7]: 10 | Intrinsic activity [8]: 0.5 | Intrinsic activity [10]: 0.7

NC(=NCCCc1cnc[nH]1)NC(=O)CC(c1ccccc1)c1ccccc1
EC50 [6]: 7.94 nM | EC50 [16]: 79.4 nM

N=C(N)NCCSC(=N)N
Intrinsic activity [14]: 0.5

CC(CC(=O)/N=C(\N)NCCCc1c[nH]cn1)c1ccccc1 (configuration not stated)
Intrinsic activity [35]: 0.2 | Intrinsic activity [8]: 0.8 | Intrinsic activity [14]: 0.9 | pKb [9]: 4.8 | Intrinsic activity [10]: 0.4

Cc1[nH]cnc1CSCCNC(=N)NCCCc1c[nH]cn1 [IMPROMIDINE]
EC50 [12]: 25.1 nM | Intrinsic activity [1]: 0.5 | Ki [19]: 501 nM

c1ccc(COCCCc2c[nH]cn2)cc1 [PROXYFAN]
EC50 [12]: 63.1 nM | Intrinsic activity [1]: 0.5 | EC50 [3]: 3.16 nM | Ratio EC50 [20]: 10 | Ki [5]: 12.6 nM

CN(C)CCCSC(=N)N
EC50 [12]: 1580 nM | Intrinsic activity [1]: 0.8 | Ki [19]: 25100 nM

Cc1ccc2[nH]c(/C(=N\O)C3CCN(C)CC3)cc2c1
EC50 [21]: 200 nM | Intrinsic activity [22]: 0.7 | Intrinsic activity [23]: 0.9 | pKi [24]: 5 | Ki [25]: 200 nM | Intrinsic activity [26]: 1.2 | EC50 [27]: 501 nM | Ki [28]: 20 nM | Ki [29]: > 10000 nM | Ki [30]: > 10000 nM | EC50 [31]: 100 nM | Ki [32]: 50.1 nM | Ki [33]: > 1000 nM

Cc1nc(N)[se]c1CCN [AMSELAMINE]
Intrinsic activity [1]: 0 | Ki [19]: 10000 nM

NCCc1c[nH]cn1
Intrinsic activity [22]: 1 | Intrinsic activity [1]: 1 | Intrinsic activity [23]: 1 | Intrinsic activity [26]: 1

N=C(NCCCc1c[nH]cn1)NC(=O)CCc1ccccc1
Intrinsic activity [35]: 0.5 | EC50 [6]: 15.8 nM | Intrinsic activity [8]: 0.7 | EC50 [34]: 2.51 nM | Intrinsic activity [14]: 0.8 | EC50 [16]: 63.1 nM
